Patent publication US10641778B2, “System and method for analysis of peptide synthesis fidelity” (Roche Sequencing Solutions, Inc., priority 2015, dated 2020)
No end group written: not given here.

Legend:
[1] = tested on: engineered form of the protein streptavidin; experiment: Detection of acetic acid contamination of the arginine synthesis reagent: streptavidin signal output on control peptide features; assay type: binding
Method: In another example according to the present disclosure, a control peptide sequence was used to identify the presence of a contaminant in the arginine synthesis reagent. Preliminarily, it was determined using the methods described herein that the control peptide sequence [N]-GYERPGWKLAG-[C] (SEQ ID NO:19) can be used to detect the presence (or absence) of acetic acid in one or more of the synthesis reagents used to synthesize a population of peptides including the control peptide sequence GYERPGWKLAG (SEQ ID NO:19). In the present example, peptide sequences were synthesized from the C-terminus to the N-terminus. Using this synthesis scheme, it was determined that the amino acid Pro in the 5th position from the N-terminus of SEQ ID NO:19 is susceptible to acetylation in the presence of acetic acid. Without being limited by theory, it is hypothesized that as the direction of synthesis is from the C-terminus to the N-terminus, instead of addition of the amino acid Arg in the 4th position from the N-terminus following addition of the amino acid Pro in the 5th position, acetic acid was able to form an amino acid bond with the terminal proline.
Moreover, the concentration of acetic acid in a synthesis reagent can be correlated with the signal output characteristic of the interaction of the streptavidin receptor with the control peptide feature (SEQ ID NO:19) or the truncated version thereof (SEQ ID NO:20). […] However, the amino acids at the N-terminus should be selected such that there is a detectable difference in the interaction of streptavidin with the alternative control peptide.
To illustrate the detection of varying concentrations of acetic acid in a peptide synthesis reagent, four different NPPOC-protected arginine reagent solutions were prepared with differing concentrations (volume %) of acetic acid. A first arginine solution included no detectable amount of acetic acid (i.e., about 0.00%), a second arginine solution included 0.03% acetic acid, a third arginine solution included a 0.18% acetic acid, and a fourth arginine solution included 0.38% acetic acid. Four different synthetic peptide populations were synthesized using one of the four arginine solutions, and the signal output characteristic of the interaction of the streptavidin receptor with each of the control peptide features (SEQ ID NO:19) or the truncated versions thereof (SEQ ID NO:20) was determined (FIG. 24). […] In the present example, the raw signal output associated with the arginine reagent solution including 0.03% acetic acid was 1000 units, whereas the signal output associated with the arginine reagent solutions including 0.38% acetic acid was about 30,000 units. […]

streptavidin = streptavidin (Streptomyces avidinii, UniProt P22629); experiment: Streptavidin receptor interaction with control peptide features on a peptide array, fluorescence signal (substitution/deletion profiles); assay type: binding; details: raw fluorescence signal of streptavidin interaction with control peptide; variants at 6th position from N-terminus (FIG. 8A)
streptavidin, sequence (P22629 25-183, species assumed): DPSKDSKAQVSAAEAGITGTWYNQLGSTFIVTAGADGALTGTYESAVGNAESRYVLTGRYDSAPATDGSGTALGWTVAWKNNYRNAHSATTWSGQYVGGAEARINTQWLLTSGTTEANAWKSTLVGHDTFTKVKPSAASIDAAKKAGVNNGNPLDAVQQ
From the text: A number of receptor molecules 616 are shown as interacting with the peptide feature 606. Interaction of the receptor molecules 616 with the peptide feature 606 can include binding, catalysis of (or participation in) a reaction including peptides within the peptide feature 606, digestion of the peptides within the feature 606, the like, and combinations thereof. In the present example shown in FIGS. 6A-6C, the receptor 616 was used in the identification of the peptide binder sequence represented by the peptides in the feature 606 (i.e., [N]-Gly-Phe-Glu-Asp-Tyr-Leu-Gly-Glu-Tyr-His-Gly-[C] (SEQ ID NO:1)). […] In one aspect, the interaction of the receptor molecules 616 with the population of peptide features 602 on the peptide array 600 can be detected, for example, by labelling the receptor molecules 616 with a detectable tag 618 (FIG. 6C). […]
In a next step 660 of the method 650, the synthetic peptide population is interrogated in the presence of a receptor having an affinity for the peptide binder sequences encoded by the control peptides. […] Thereafter, in a step 662 of the method 650, an output of the peptide-receptor interaction is detected. […] Accordingly, based on the output detected in the step 662, a step 664 of the method 650 can include assessing the fidelity of amino acid incorporation. […]

Substance: *PGWKLAG (Ac-PGWKLAG) [*PGWKLAG (SEQ ID NO:20), *P is acetylated N-terminal Pro]
- affinity towards an engineered form of the protein streptavidin ([1]; acetylated truncated peptide on array (FIG. 24)): exhibit intrinsic affinity

Substance: GWTHPMFEQKG [GWTHPMFEQKG (SEQ ID NO:2)]
- average raw signal (streptavidin): 18,000 units

Substance: GYERPGWKLAG [GYERPGWKLAG (SEQ ID NO:19), control peptide to detect acetic acid contamination in synthesis reagents]
- increase in raw signal ([1]; acetic acid in arginine reagent raised from 0.03% to 0.38%): 30 fold
- raw signal output ([1]; control peptide features (SEQ ID NO:19 or truncated SEQ ID NO:20) synthesized with arginine reagent solution including 0.03% acetic acid (FIG. 24)): 1000 units
- signal output ([1]; control peptide features (SEQ ID NO:19 or truncated SEQ ID NO:20) synthesized with arginine reagent solution including 0.38% acetic acid (FIG. 24)): about 30,000 units
